Read-outs that look alike come from different tables or passages of the source.
System: A549 cells
Test: MTT assay, percent survival of A549 cells
Format: cell-based
Procedure: 1. Prepare a suspension of A549 cells at 2×10^5 cells per mL in supplemented DMEM/F12 growth medium.
2. Plate 2×10^4 cells per well in a 96 well cell culture plate by adding 100 μL of stock suspension to each well.
3. For each platinum compound (already in solution), prepare a readily usable stock solution in DMEM/F12 medium.
4. For each compound generate triplicate trials of 0, 10, 20, 30, 40, 50, 60, and 70 μM concentration. This is achieved in situ by adding appropriate volumes of stock solution to each well along with the volume of untreated medium necessary to generate the desired concentration in a final volume of 200 μL.
5. Gently agitate plates to mix contents. Incubate at 37° C., 7% CO2 for 45 hours.
6. Add 20 μL of 5 mg/mL MTT solution (in PBS) to each well.
7. Gently agitate plates to mix contents and incubate an additional 3 hours to allow product development.
8. Remove plates from incubator and agitate to cause settling of formazan product.
9. Aspirate out liquid contents of each well using needle and syringe and discard.
10. Add 200 μL DMSO to each well to dissolve formazan product.
11. Agitate plates until all of the formazan product is in solution and no purple crystals remain on the bottom surface of the wells.
12. Read the absorbance of each well at […] using Varian software for Cary 50 UV-vis Spectrophotometer with fiber optic probe accessory.
(§1) MTT assays are used for the quantitative determination of cellular proliferation and activation and for the quantitation of in vitro tumor cell sensitivity to anti-cancer compounds. The assay is based on the cleavage of the yellow tetrazolium salt MTT into purple colored formazan by metabolically active cells. Solubilized formazan product can be photometrically quantitated using an ELISA plate reader. A decrease in the number of living cells results in a decrease in total metabolic activity which leads to a decrease in color formation. Platinum complexes of the present invention were tested in MTT assays using A549 cells to determine anti-cancer cell activity. […] FIGS. 1, 2, and 4 show percent survival versus platinum complex concentration in graphical form.
as §1, with “FIGS. 8, 9,” for “FIGS. 1, 2,”, “and 11” for “and 4”

## NC(=O)c1ccc(N)nc1 [6-Aminonicotinamide]
Homo sapiens, A549, read-out: Calculated IC 50 (uM concentration)
  IC50: 53.1 µM
Table 6, A549, 10 μM
  Average Absorbance: 2.3742
  Percent Survival: 100.5548%
Table 6, A549, 20 μM
  Average Absorbance: 2.4321
  Percent Survival: 103.0071%
Table 6, A549, 30 μM
  Average Absorbance: 2.2814
  Percent Survival: 96.6245%
Table 6, A549, 40 μM
  Average Absorbance: 1.7213
  Percent Survival: 72.9025%
Table 6, A549, 50 μM
  Average Absorbance: 0.8618
  Percent Survival: 36.4999%
Table 6, A549, 60 μM
  Average Absorbance: 0.7739
  Percent Survival: 32.7771%
Table 6, A549, 70 μM
  Average Absorbance: 0.8536
  Percent Survival: 36.1526%
Table 8, A549, 10 μM
  Average Absorbance: 2.4711
  Percent Survival: 101.1544%
Table 8, A549, 20 μM
  Average Absorbance: 2.4672
  Percent Survival: 100.9947%
Table 8, A549, 30 μM
  Average Absorbance: 1.9896
  Percent Survival: 81.4442%
Table 8, A549, 40 μM
  Average Absorbance: 1.0963
  Percent Survival: 44.8770%
Table 8, A549, 50 μM
  Average Absorbance: 0.6485
  Percent Survival: 26.5463%
Table 8, A549, 60 μM
  Average Absorbance: 0.5811
  Percent Survival: 23.7873%
Table 8, A549, 70 μM
  Average Absorbance: 0.6294
  Percent Survival: 25.7645%

## CO[C@H]1O[C@H](CO)[C@@H](O)[C@H](O)[C@@H]1O [Methyl alpha-D-Mannopyranoside]
Homo sapiens, Table 7, A549, linear trend from percent survival vs. concentration data, read-out: Calculated IC 50 (uM concentration)
  IC50: 50.1 µM
Table 6, A549, 10 μM
  Average Absorbance: 2.4582
  Percent Survival: 104.1125%
Table 6, A549, 20 μM
  Average Absorbance: 2.4610
  Percent Survival: 104.2311%
Table 6, A549, 30 μM
  Average Absorbance: 2.1544
  Percent Survival: 91.2456%
Table 6, A549, 40 μM
  Average Absorbance: 1.1005
  Percent Survival: 46.6096%
Table 6, A549, 50 μM
  Average Absorbance: 0.6631
  Percent Survival: 28.0844%
Table 6, A549, 60 μM
  Average Absorbance: 0.9420
  Percent Survival: 39.8967%
Table 6, A549, 70 μM
  Average Absorbance: 0.8479
  Percent Survival: 35.9112%
Table 8, A549, 10 μM
  Average Absorbance: 2.6117
  Percent Survival: 106.9098%
Table 8, A549, 20 μM
  Average Absorbance: 2.4353
  Percent Survival: 99.6889%
Table 8, A549, 30 μM
  Average Absorbance: 1.7315
  Percent Survival: 70.8789%
Table 8, A549, 40 μM
  Average Absorbance: 0.6173
  Percent Survival: 25.2691%
Table 8, A549, 50 μM
  Average Absorbance: 0.4370
  Percent Survival: 17.8886%
Table 8, A549, 60 μM
  Average Absorbance: 0.5017
  Percent Survival: 20.5371%
Table 8, A549, 70 μM
  Average Absorbance: 0.5339
  Percent Survival: 21.8552%

## CC(C)(C(=O)O)C(O)(C(=O)O)C(C)(C)C(=O)[O][Pt]([NH2])([NH2])([Cl])([Cl])[N+](=O)[O-] (stereo not shown) [CPA-31]
Table 1, A549, 10 μM
  Average Absorbance: 2.4274
  Percent Survival: 102.8080%
Table 1, A549, 20 μM
  Average Absorbance: 2.3495
  Percent Survival: 99.5087%
Table 1, A549, 30 μM
  Average Absorbance: 2.3778
  Percent Survival: 100.7073%
Table 2, A549, extrapolated from incomplete data (10-40 uM; CPA-31 10-30 μM), outside the measured range, read-out: Calculated IC 50 (uM concentration)
  IC50: 506 µM
Table 3, A549, 10 μM
  Average Absorbance: 2.5294
  Percent Survival: 103.5409%
Table 3, A549, 20 μM
  Average Absorbance: 2.3875
  Percent Survival: 97.7322%
Table 3, A549, 30 μM
  Average Absorbance: 1.7978
  Percent Survival: 73.5929%
Table 3, A549, 40 μM
  Average Absorbance: 0.8196
  Percent Survival: 33.5503%
Table 3, A549, 50 μM
  Average Absorbance: 0.6049
  Percent Survival: 24.7616%
Table 3, A549, 60 μM
  Average Absorbance: 0.6067
  Percent Survival: 24.8352%
Table 3, A549, 70 μM
  Average Absorbance: 0.6228
  Percent Survival: 25.4943%

From patent US7759510B2, “Platinum complexes and methods of use” (University of South Florida, priority 2003, dated 2010)
